The values that follow come from ChEMBL document CHEMBL1201862, “PubChem BioAssay data set” (2004).

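Following 48 hours of exposure in 96-well plates, responses at five concentrations were used to interpolate endpoints linearly. GI50 marks 50% less growth.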 Active and inactive are the calls of the source. Rule as the data show it: active = GI50 up to about 1.1 µM and inactive = higher. Where only a bound is given, the exact number is not on record here.

Test systems include SW-620; OVCAR-3; M14; UACC-62; Malme-3M; SR; OVCAR-4; SNB-75; 786-0; KM12; RPMI-8226; UO-31; Hs-578T; A549; U-251; IGROV-1; HCT-116; BT-549; HT-29; LOX IMVI.
Assay in all cases: NCI tumour cell line growth inhibition, 48 h

Regarding `COc1ccc([C@H]2C=C(c3cc(F)c(Cl)cc3Cl)NC(=S)N2)cc1`, the GI50 was 30.9 µM (inactive) with SW-620; 33.7 µM (inactive) in the assay on OVCAR-3; 32.5 µM (inactive) with M14; 28.3 µM (inactive) in the assay on UACC-62; 40.6 µM (inactive) in the assay with Malme-3M; 5.24 µM (inactive) in the assay with SR. Besides, the GI50 was 28.3 µM (inactive) with OVCAR-4; 18.2 µM (inactive) in the assay with SNB-75; 33.6 µM (inactive) with 786-0; 29.2 µM (inactive) in the assay on KM12; 21.7 µM (inactive) in the assay with RPMI-8226; 36.6 µM (inactive) with UO-31. The GI50 with Hs-578T was 79.1 µM (inactive); with A549, 35.3 µM (inactive); in the assay on U-251, 26.7 µM (inactive); with IGROV-1, 31.4 µM (inactive); in the assay on HCT-116, 27 µM (inactive); with BT-549, 32.7 µM (inactive). The GI50 in the assay on HT-29 was 26.2 µM (inactive); in the assay with LOX IMVI, 37.3 µM (inactive).
Regarding `NC1=NCC(CN2CCOCC2)O1` (stereo not given), the GI50 in the assay on SW-620, in the assay with OVCAR-3, with M14, with UACC-62, in the assay with Malme-3M and in the assay with SR was > 100 µM (inactive) each time. In addition, the GI50 in the assay with OVCAR-4 is > 100 µM (inactive); in the assay on SNB-75 it was 62.2 µM (inactive); in the assay with 786-0, > 100 µM (inactive); with KM12, > 100 µM (inactive); in the assay on RPMI-8226, > 100 µM (inactive); in the assay with UO-31, > 100 µM (inactive). In addition, the GI50 with Hs-578T, with A549, in the assay on U-251, in the assay on IGROV-1, in the assay on HCT-116 and in the assay on BT-549 was > 100 µM (inactive) in each case. Besides, the GI50 in the assay on HT-29 and in the assay on LOX IMVI was > 100 µM (inactive) throughout.
With `CNC(=S)N/N=C(\C)c1ccc(OC)cc1O`, the GI50 in the assay on SW-620 was > 100 µM (inactive); in the assay with OVCAR-3, > 100 µM (inactive); in the assay on M14 it was > 100 µM (inactive); in the assay with UACC-62, > 100 µM (inactive); in the assay with Malme-3M, > 100 µM (inactive); with SR, 29.3 µM (inactive). The GI50 is 28.1 µM (inactive) with OVCAR-4; > 100 µM (inactive) with SNB-75; > 100 µM (inactive) with 786-0; > 100 µM (inactive) in the assay with KM12; > 32 µM (inactive) with RPMI-8226; > 100 µM (inactive) in the assay with UO-31. Moreover, the GI50 is > 89.9 µM (inactive) in the assay on Hs-578T; > 100 µM (inactive) in the assay on A549; > 73.5 µM (inactive) in the assay on U-251; 22.5 µM (inactive) in the assay on IGROV-1; > 100 µM (inactive) in the assay with HCT-116; > 100 µM (inactive) in the assay with BT-549. The GI50 was 0.337 µM (active) in the assay on HT-29 and > 100 µM (inactive) in the assay on LOX IMVI.
As to `CSC(=O)c1sc(SC)[n+](-c2ccccc2)c1O`, the GI50 in the assay with SW-620 was 15.5 µM (inactive); in the assay with OVCAR-3, 13.2 µM (inactive); with M14 it was 14.3 µM (inactive); with UACC-62, 15.6 µM (inactive); with Malme-3M it was 21.6 µM (inactive); with SR it was 29.8 µM (inactive). In addition, the GI50 is 12.1 µM (inactive) with OVCAR-4; 13.1 µM (inactive) in the assay with SNB-75; 17.9 µM (inactive) with 786-0; > 10 µM (inactive) in the assay on KM12; 21.5 µM (inactive) with RPMI-8226; 17.3 µM (inactive) in the assay with UO-31. In addition, the GI50 was 28.3 µM (inactive) in the assay on Hs-578T; > 100 µM (inactive) with A549; 16.5 µM (inactive) in the assay with U-251; 19.2 µM (inactive) with IGROV-1; 16.8 µM (inactive) in the assay on HCT-116; 15.1 µM (inactive) in the assay on BT-549. Moreover, the results for the GI50 in the assay with HT-29 and in the assay on LOX IMVI were 20.2 µM (inactive) and 12.6 µM (inactive), respectively.
Regarding `CSc1c(C#N)c(N)n(-c2ccc(Cl)cc2)c(=O)c1C#N`, the GI50 is > 100 µM (inactive) in the assay with SW-620; > 100 µM (inactive) with OVCAR-3; > 100 µM (inactive) in the assay with M14; > 100 µM (inactive) in the assay with UACC-62; > 100 µM (inactive) with Malme-3M; 42.8 µM (inactive) in the assay on SR. For the same molecule, the GI50 was > 100 µM (inactive) in the assay on OVCAR-4; 78 µM (inactive) in the assay with SNB-75; > 100 µM (inactive) in the assay with 786-0; > 100 µM (inactive) in the assay on KM12; > 100 µM (inactive) with RPMI-8226; > 100 µM (inactive) in the assay on UO-31. For the same molecule, the GI50 in the assay with Hs-578T, with A549, in the assay with U-251, in the assay with IGROV-1, in the assay on HCT-116 and in the assay on BT-549 was > 100 µM (inactive) each time. The GI50 with HT-29 and in the assay with LOX IMVI was > 100 µM (inactive) in each case.
Take `CCCCCCCCCC(=O)NCCc1c[nH]c2ccc(OC)cc12`: the GI50 in the assay on SW-620 was 18.2 µM (inactive); in the assay on OVCAR-3 it was 15.9 µM (inactive); in the assay with M14, 17.9 µM (inactive); in the assay on UACC-62, 16.3 µM (inactive); in the assay on Malme-3M it was 18.2 µM (inactive); in the assay on SR it was 40.9 µM (inactive). Moreover, the GI50 was > 100 µM (inactive) with OVCAR-4; 20.6 µM (inactive) in the assay on SNB-75; 19.2 µM (inactive) in the assay with 786-0; 27.9 µM (inactive) in the assay with KM12; 21.1 µM (inactive) in the assay with RPMI-8226; 12.7 µM (inactive) in the assay on UO-31. In addition, the GI50 with Hs-578T was 20.1 µM (inactive); in the assay on A549 it was 19 µM (inactive); in the assay with U-251, 17 µM (inactive); in the assay on IGROV-1, 14.9 µM (inactive); with HCT-116, 21.4 µM (inactive); with BT-549, 18.6 µM (inactive). Further, the GI50 in the assay with HT-29 is 23.2 µM (inactive); in the assay on LOX IMVI it was 13.8 µM (inactive).
Turning to `COC(=O)/C=C1\C(=O)N(C(C)=O)c2ccc(Br)cc21`, the GI50 in the assay on SW-620 is 6.03 µM (inactive); with OVCAR-3, 4.76 µM (inactive); in the assay with M14, 10.4 µM (inactive); with UACC-62, 11.6 µM (inactive); in the assay with Malme-3M it was 14.1 µM (inactive); with SR, 2.8 µM (inactive). For the same molecule, the GI50 in the assay with OVCAR-4 was 13.2 µM (inactive); with SNB-75 it was 8.59 µM (inactive); with 786-0, 5.46 µM (inactive); with KM12, 14.3 µM (inactive); in the assay with RPMI-8226, 2.66 µM (inactive); in the assay with UO-31 it was 0.69 µM (active). The GI50 was 8.39 µM (inactive) with Hs-578T; 17.5 µM (inactive) in the assay on A549; 8.05 µM (inactive) in the assay on U-251; 7.6 µM (inactive) in the assay with IGROV-1; 6.92 µM (inactive) in the assay on HCT-116; 9.08 µM (inactive) with BT-549. The figures for the GI50 in the assay on HT-29 and with LOX IMVI were 8.87 µM (inactive) and 7.89 µM (inactive), respectively.
`O=C1C[C@H](COCc2ccccc2)NC(=O)C[C@H](COCc2ccccc2)NC(=O)C[C@H](COCc2ccccc2)N1`: the GI50 with SW-620 was > 100 µM (inactive); in the assay on OVCAR-3 it was 80.5 µM (inactive); in the assay with M14, > 100 µM (inactive); with UACC-62 it was > 100 µM (inactive); with Malme-3M, > 100 µM (inactive); in the assay on SR, 42.4 µM (inactive). Moreover, the GI50 was > 100 µM (inactive) in the assay on OVCAR-4; 2.55 µM (inactive) in the assay on SNB-75; 16.9 µM (inactive) with 786-0; > 100 µM (inactive) with KM12; > 100 µM (inactive) in the assay with RPMI-8226; > 100 µM (inactive) in the assay with UO-31. Also, the GI50 was 39.9 µM (inactive) with Hs-578T; > 100 µM (inactive) in the assay with A549; 12.6 µM (inactive) with U-251; > 100 µM (inactive) in the assay on IGROV-1; 32.4 µM (inactive) in the assay on HCT-116; 41.6 µM (inactive) in the assay with BT-549. Also, the GI50 in the assay with HT-29 and in the assay with LOX IMVI was > 100 µM (inactive) each time.
Consider `Cn1cnc([N+](=O)[O-])c1Sc1nnc(-c2cccnc2)n1C`, for which the GI50 was 14.7 µM (inactive) with SW-620; 17.2 µM (inactive) in the assay on OVCAR-3; 16.8 µM (inactive) with M14; 17.3 µM (inactive) in the assay on UACC-62; 15.5 µM (inactive) in the assay on Malme-3M; 15.3 µM (inactive) in the assay with SR. Moreover, the GI50 with OVCAR-4 was 22.2 µM (inactive); with SNB-75, 58.7 µM (inactive); in the assay on 786-0, 18.5 µM (inactive); with KM12 it was > 82 µM (inactive); in the assay on RPMI-8226, 18.1 µM (inactive); in the assay on UO-31 it was 32.4 µM (inactive). The GI50 was 34.7 µM (inactive) in the assay with Hs-578T; 84.5 µM (inactive) in the assay with A549; 43.6 µM (inactive) in the assay with U-251; 68.5 µM (inactive) in the assay with IGROV-1; 18.4 µM (inactive) in the assay on HCT-116; 19 µM (inactive) in the assay on BT-549. For the same molecule, the GI50 in the assay with HT-29 is 17.4 µM (inactive); in the assay with LOX IMVI, 17.8 µM (inactive).
In the case of `Cn1c(=O)cc(Nc2ccc(N)cc2)[nH]c1=O`, the GI50 in the assay with SW-620, in the assay on OVCAR-3, in the assay with M14, with UACC-62, with Malme-3M and with SR was > 100 µM (inactive) throughout. The GI50 in the assay on OVCAR-4, in the assay with SNB-75, in the assay with 786-0, with KM12, in the assay with RPMI-8226 and in the assay on UO-31 was > 100 µM (inactive) in each case. Also, the GI50 in the assay with Hs-578T, in the assay on A549, with U-251, with IGROV-1, with HCT-116 and with BT-549 was > 100 µM (inactive) throughout. Besides, the GI50 in the assay with HT-29 and in the assay on LOX IMVI was > 100 µM (inactive) in each case.
